Test [1] deals with KMS11 MM cells. Description: Cellular proliferation by MTT assay (CellTiter 96 AQ). It counts as cell-based. Particulars: Homo sapiens, KMS-11, 72 hr treatment. The source says:
(§1) The growth inhibitory activity of SAC was further characterized by MTT assay. These experiments assess cellular proliferation using the CellTiter 96 AQ Non-Radioactive Cell Proliferation Assay (Promega). This assay determines the number of living cells based upon the bioreduction of MTS tetrazolium compound into a colored formazan product. The quantity of product, as measured by absorbance on a microplate reader at 495 nm, is directly proportional to the number of living cells in culture. All cells were seeded in 96-well plates at a density of 5,000 cells per well. After overnight incubation, cells were treated with SAC at the indicated concentrations. After a 72 hr incubation period, proliferation was assessed. Cellular proliferation was expressed as a percentage with vehicle-treated cells set at 100%. See, for example, FIG. 2.
(§2) The cell proliferation assay performed to generate the results presented in FIG. 5, for example, was performed as described elsewhere herein. Briefly, all cells were seeded in 96-well plates at a density of 5000 cells per well. After overnight incubation, cells were treated with a candidate compound at concentrations ranging from 100 nM to 10000 nM. After a 72 hr incubation period, proliferation was assessed using a tetrazolium dye reduction assay (CellTiter 96 AQueous Non-Radioactive Cell Proliferation Assay; Promega, Madison, Wis.). Absorbance was recorded on a microplate reader at 490 nm. Cellular proliferation was expressed as a percentage with vehicle-treated cells set at 100%. Each assay was performed in triplicate with mean values reported.

In the next test the test system is ARP1 MM cells. The test is described as above. Type of test: cell-based. The following applies: Homo sapiens, ARP-1, 72 hr treatment.
Text: as §1, §2

In test [2] the test system is panel of 60 different cancer cell lines. Description: NCI 60 cell screen growth inhibitory activity. Type of test: cell-based. The following applies: NCI 60 cell panel. An excerpt: Although SAC has been used to treat other types of cancer including colon, lung, breast and liver, the present inventors are unaware of any studies pertaining to its efficacy in MM, MGUS or SMM. One major difference between these types of cancers relates to the fact that those that have been assessed with regard to SAC' s efficacy are solid tumors, whereas MM is a blood cancer. Further to this point, the present inventors submitted SAC for analysis in the Developmental Therapeutics Program at the NCI/NIH. The growth inhibitory activity of SAC was assessed in the NCI 60 cell screen, which is a panel of 60 different cancer cell lines. […] SAC anti-cancer activity must, therefore, be determined empirically for each cancer, due to the lack of predictability of response. Therefore, a compound's ability to act as a therapeutic agent in one cancer, e.g. colon, is not necessarily predictive of its properties with respect to a different cancer, even a related cancer. It is also noteworthy that no MM cell lines are represented in the 60 cell panel. This underscores the fact that, in advance of the present findings, MM cell lines were not thought to be suitable targets for examining SAC anti-cancer activity.

For test [3], the system named is KMS11 MM cells. Briefly: Western blotting of UPR markers and apoptotic marker. It counts as cell-based, human. Particulars: western blot. An excerpt:
In order to investigate the mechanism of SAC mediated ER stress response, the present inventors evaluated key unfolded protein response (UPR) markers including phospho-eIF2α and BIP as well as the apoptotic marker cleaved PARP by standard western blotting techniques. […] See also FIG. 3.
For orientation: Immunoblotting shows a protein as a band on a membrane.

Test [4] relates to bone marrow (BM) mononuclear cells isolated from a patient with smoldering multiple myeloma (SMM). Description: Cellular proliferation of SMM bone marrow mononuclear cells. Particulars: 100 nM to 10000 nM, 72 hr. Type of test: cell-based, human. An excerpt: To explore the effects of SAC in the context of SMM, the present inventors tested the activity of SAC in bone marrow (BM) mononuclear cells isolated from a patient with smoldering multiple myeloma (SMM). To isolate the BM mononuclear cells, heparinized BM samples were freshly obtained from a SMM patient, diluted in PBS, and subjected to Ficoll-Hypaque density separation. Mononuclear cells are carefully collected from the PBS-Ficoll interface, washed in PBS and pelleted. The cell proliferation assay was performed by seeding the SMM BM mononuclear cells in 96-well plates at a density of 5000 cells per well. After overnight incubation, cells were treated with SAC at concentrations ranging from 100 nM to 10000 nM. After a 72 hr incubation period, proliferation was assessed using a tetrazolium dye reduction assay (CellTiter 96 AQueous Non-Radioactive Cell Proliferation Assay; Promega, Madison, Wis.). Absorbance was recorded on a microplate reader at 490 nm. Cellular proliferation was expressed as a percentage with vehicle-treated cells set at 100%. Each assay was performed in triplicate with mean values reported.

Test [5] deals with KMS11 and ARP1 multiple myeloma cells. Briefly: XBP1 cleavage assay (semi-quantitative RT-PCR). Type of test: cell-based, human. The following applies: 0.5 uM SAC, 24 hours. As to the method: The XBP1 cleavage assay used to generate the results presented in FIG. 6 was performed as follows. KMS11 and ARP1 cells were treated with 0.5 uM SAC or 10 ng/ml tunicamycin (TM, positive control) for 24 hours. Total RNA was isolated from lysed cells with the RNeasy Mini kit (Qiagen, Germantown, Md., USA). XBP1 splicing was assessed by semi-quantitative RT-PCR as described previously (Lin, et al. Science, 2007. 318(5852):944-9; Manga et al. Pigment Cell Melanoma Res, 2010. 23(5):627-34; the entire content of each of which is incorporated herein by reference). cDNA was produced from total RNA preps using ImProm-II Reverse Transcription System (Promega). Primers spanning the fragment of XBP1 containing the intron targeted by Irela were used: 5′-[…]-3′ and 5′-[…]-3′. The thermal PCR cycling conditions are as follows: 95° C. for 5 min, 95° C. for 1 min, 58° C. for 30 s, 72° C. for 30 s, and 72° C. for 5 min with 35 cycles of amplification. In order to properly distinguish the PCR products, samples were digested with Pst1 (New England Biolabs, Ipswich, Mass., USA) that only cuts the unspliced cDNA (Calfon et al. Nature, 2002. 415(6867):92-6). Products were then separated on a 2.0% agarose/1× TAE gel and visualized by ethidium bromide.

Test [6] concerns KMS11 and ARP-1 MM cells expressing Gluc. Briefly: Gluc (Gaussia luciferase) secretion screen. It counts as cell-based, human. Particulars: 5 μM compound, 24 hours, % RLU relative to DMSO control. The source says:
Using decreased protein processing in the secretory pathway as a measurable hallmark of ER stress, the screen described herein employs the naturally secreted Gaussia luciferase (Gluc) as a reporter that can be easily monitored through extracellular release of luciferase activity in real time. KMS11 and ARP-1 MM cells expressing Gluc were exposed to compounds in a natural products library in order to identify those which potentially induce ER stress as measured by inhibition of Gluc secretion. Both KMS11 and ARP-1 are human MM cells lines routinely used in the literature as in vitro models of MM. See, for example, Paterson et al., Br J Haematol, 2004, 124, 595-603; Pedranzini et al., Cancer Res, 2006, 66, 9714-9721; Stein et al., Clin Cancer Res, 2009, 15, 2808-2817; St-Germain J R. et al., Proc Natl Acad Sci USA, 2009, 106, 20127-20132; Gojo et al., Clin Cancer Res, 2002, 8, 3527-3538; Drucker et al., Carcinogenesis, 2006, 27, 197-204; Weiss et al., Br J Cancer, 2012, 107, 1844-1852; and Wang et al., Clin Cancer Res, 2006, 12, 49-56; the entire content of each of which is incorporated herein by reference. […] For screening, KMS11 and ARP1 cells were seeded in 96-well plates and treated with 5 μM of compounds from the Spectrum library (Microsource Discoveries) for 24 hours. Conditioned medium from each compound treatment was harvested to assay Gluc secretion alongside samples treated with DMSO alone, BTZ and TM as controls. Compounds of interest were considered to be those that inhibit Gluc secretion in both cell lines at least 30% after 24 hours treatment. See, for example, FIG. 1. […] For screening, […] Conditioned medium from each compound treatment was harvested to assay Gluc secretion alongside samples treated with DMSO alone, BTZ and TM as controls. Compounds of interest were considered to be those that inhibit Gluc secretion in both cell lines by at least 30% after 24 hours treatment. […]

The structures appear in SMILES notation.

The record followed here is US9526712B2, “Methods and agents for preventing and treating plasma cell dyscrasias” (NEW YORK UNIVERSITY, priority 2013, dated 2016).

One may read the IC50 as the midpoint of a concentration-inhibition curve. In the test on KMS11 MM cells [1], `C=CCSC[C@H](N)C(=O)O` [SAC, S-allylcysteine] returned an IC50 of 1500 nM. For the same compound, in the test with ARP1 MM cells, the IC50 came out at 1900 nM. For the same compound, the “mean growth percent across all 60 cell lines” value in test [2] was 106. Besides, in the test on KMS11 MM cells [3], the BIP expression entry was “increased BIP expression”, the “cleavage of PARP” value is listed as “cleavage of PARP” and the “phosphorylation of eIF2-α” value was “enhanced phosphorylation of eIF2-α”. Moreover, in test [4], the “inhibition of cellular proliferation” value is listed as “dose-dependent inhibition of cellular proliferation”. Moreover, the “splicing of XBP1” value in test [5] is listed as “enhanced splicing of the UPR transcription factor XBP1”. Also, the “inhibition of Gluc secretion” value in test [6] is “inhibited Gluc secretion as effectively as 5 μM BTZ”.
For the compound `CCCSC[C@H](N)C(=O)O` [SPC, S-propyl cysteine, reference compound], the IC50 in the test with KMS11 MM cells [1] and in the test with ARP1 MM cells was over 10000 nM throughout.
For the compound `C=CC[S+]([O-])C[C@H](N)C(=O)O` (stereo partly shown) [alliin, Allylcysteine sulfoxide], the “inhibition of Gluc secretion” value in test [6] was “not found to be effective at inhibiting GLUC secretion”; in test [6] (listed as alliicin) it was “did not exhibit an ability to target ER stress mediated pathways”.
